From patent publication US20070167499A1, “Biaryl linked hydroxamates: preparation and pharmaceutical applications” (A*BIO Pte Ltd., priority 2003, published 2007) come the findings set out here.

Experiment [1] deals with Ramos Burkitt-lymphoma cells. Description: Apoptosis assay (Annexin V / PI flow cytometry). It counts as cell-based, human. To be noted: 48 h after treatment with 10 μM. From the text:
In various therapies such as for proliferative disorders like cancer, the selective induction of apoptosis in proliferating cells such as tumor cells is one of the desirable approaches, and can be mediated by treatment with various anti-proliferative compounds [Blagosklonny MV, Oncogene, 23(16): 2967 (2004); Kaufmann and Eamshaw, Exp Cell Res. 256(1): 42-9 (2000)]. Programmed cell death or apoptosis is the cellular response to stress factors such as DNA damage introduced during conventional anti-cancer treatment. The concerted sequence of events during apoptosis, clearly differentiate this pathway from a non-coordinated form of cell death called necrosis. During the course of apoptosis, characteristic phenotypical cellular changes occur, which include the condensation of chromatin, the shrinkage of cells and finally the fragmentation of chromosomal DNA. One of the very early change caused by apoptotic events occurs in the phospholipids bilayer of the plasma membrane. The phospholipid phosphatidylserine is translocated from the inner to the outer side of the plasma-membrane and, as a result, is exposed to the extracellular space. One way of detecting early apoptotic cells is to determine the amount of phosphatidyl-serine at the extracellular side of the plasma-membrane which is accomplished by the standard flow cytometric method of Annexin V staining. The phospholipids recognizing protein Annexin V binds with high affinity to these inverted and exposed phosphatidyl-serines.
The ability of the compounds in this invention to induce apoptosis was tested in Ramos Burkitt-lymphoma cells. This cell line is one of the gold standard cell lines commonly used as a tissue culture model for B cell lymphoma. Representative compounds as indicated below were added to 80,000 cells per 500 μl growth medium (RPMI1640 medium supplemented with 2 mM L-Glutamine, 10% heat-inactivated FBS, 1 mM Na-Pyruvate and 10 mM HEPES) in 24 well format at various concentrations. Two days after the start of treatment, cells were collected and subjected to the Annexin V staining protocol following the instructions of the manufacturer (BD Biosciences). By using propidium iodide (PI) as a viability control, cells that stain positive for Annexin V, but negative for PI, are undergoing apoptosis.

The target of a further experiment is T1, HDAC1 enzyme (GST-HDAC1) (Homo sapiens, UniProt Q13547).
T1 construct: Amplification of human HDAC1 and HDAC8 coding region from this cDNA library; made in house; host or cells: SF9 insect cells (baculovirus, pDEST20 vector)
T1 sequence (Q13547 whole entry): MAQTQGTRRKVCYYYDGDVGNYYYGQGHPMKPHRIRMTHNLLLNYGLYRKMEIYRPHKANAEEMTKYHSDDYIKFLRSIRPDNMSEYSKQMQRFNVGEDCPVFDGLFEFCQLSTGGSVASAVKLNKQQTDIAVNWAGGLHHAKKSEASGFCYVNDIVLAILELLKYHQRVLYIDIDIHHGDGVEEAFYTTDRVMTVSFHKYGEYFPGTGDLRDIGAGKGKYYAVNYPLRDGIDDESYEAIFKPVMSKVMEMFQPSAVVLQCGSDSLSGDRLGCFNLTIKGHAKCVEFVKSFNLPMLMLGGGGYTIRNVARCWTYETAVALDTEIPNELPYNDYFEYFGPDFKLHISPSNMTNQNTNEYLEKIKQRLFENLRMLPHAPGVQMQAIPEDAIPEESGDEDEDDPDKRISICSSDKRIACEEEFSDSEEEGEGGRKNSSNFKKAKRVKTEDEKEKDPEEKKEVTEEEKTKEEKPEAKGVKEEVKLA
Description: In vitro HDAC assay for determination of IC50 values (BIOMOL fluorescent-based HDAC activity assay), HDAC1. It counts as biochemical. To be noted: 600 nM HDAC1 enzyme, 500 μM Flur de lys generic substrate, room temperature 2 h. The method, then: (§1) Recombinant GST-HDAC1 and GST-HDAC-8 Protein expression and purification
Human cDNA library was prepared using cultured SW620 cells. Amplification of human HDAC1 and HDAC8 coding region from this cDNA library was cloned separately into the baculovirus expression pDEST20 vector and pFASTBAC vector respectively (GATEWAY Cloning Technology, Invitrogen Pte Ltd). The pDEST20-HDAC1 and pFASTBAC-HTGST-HDAC8 constructs were confirmed by DNA sequencing. Recombinant baculovirus was prepared using the Bac-To-Bac method following the manufacturer's instruction (Invitrogen Pte Ltd). Baculovirus titer was determined by plaque assay to be about 10^8 PFU/ml.
(§2) Expression of GST-HDAC1 or HTGST-HDAC8 was done by infecting SF9 cells (Invitrogen Pte Ltd) with pDEST20-HDAC1 or pFASTBAC-GST-HDAC8 baculovirus at MOI=1 for 48 h. Soluble cell lysate was incubated with pre-equilibrated Glutathione Sepharose 4B beads (Amersham) at 4° C. for 2 h. The beads were washed with PBS buffer for 3 times. The GST-HDAC1 protein or GST-HDAC8 protein was eluted by elution buffer containing 50 mM Tris, pH8.0, 150 mM NaCl, 1% Triton X-100 and 10 mM or 20 mM reduced Glutathione. The purified GST-HDAC1 protein or purified GST-HDAC8 protein was dialyzed with HDAC storage buffer containing 10 mM Tris, pH7.5, 100 mM NaCl and 3 mM MgCl2. 20% Glycerol was added to purified GST-HDAC1 protein or purified GST-HDAC8 before storage at −80° C.
(§3) In vitro HDAC assay for determination of IC50 values
The assay has been carried out in 96 well format and the BIOMOL fluorescent-based HDAC activity assay has been applied. The reaction composed of assay buffer, containing 25 mM Tris pH 7.5, 137 mM NaCl, 2.7 mM KCl, 1 mM MgCl2, 1 mg/ml BSA, tested compounds, 500 nM HDAC8 enzyme or 600 nM HDAC1 enzyme, 200 μM Flur de lys p53 peptide substrate for HDAC8 enzyme or 500 μM Flur de lys generic substrate for HDAC1 enzyme and subsequently was incubated at room temperature for 2 h. Flur de lys Developer was added and the reaction was incubated for 10 min. Briefly, deacetylation of the substrate sensitizes it to the developer, which then generates a fluorophore The fluorophore is excited with 360 nm light and the emitted light (460 nm) is detected on a fluorometric plate reader (Tecan Ultra Microplate detection system, Tecan Group Ltd.).
(§4) The analytical software, Prism 3.0® (GraphPad Software Inc) has been used to generate IC50 from a series of data.

The next experiment concerns the target T2, HDAC8 enzyme (GST-HDAC8) (Homo sapiens, UniProt Q9BY41).
T2 construct: Amplification of human HDAC1 and HDAC8 coding region from this cDNA library; made in house; host or cells: SF9 insect cells (baculovirus, pFASTBAC vector)
T2 sequence (Q9BY41 1-377): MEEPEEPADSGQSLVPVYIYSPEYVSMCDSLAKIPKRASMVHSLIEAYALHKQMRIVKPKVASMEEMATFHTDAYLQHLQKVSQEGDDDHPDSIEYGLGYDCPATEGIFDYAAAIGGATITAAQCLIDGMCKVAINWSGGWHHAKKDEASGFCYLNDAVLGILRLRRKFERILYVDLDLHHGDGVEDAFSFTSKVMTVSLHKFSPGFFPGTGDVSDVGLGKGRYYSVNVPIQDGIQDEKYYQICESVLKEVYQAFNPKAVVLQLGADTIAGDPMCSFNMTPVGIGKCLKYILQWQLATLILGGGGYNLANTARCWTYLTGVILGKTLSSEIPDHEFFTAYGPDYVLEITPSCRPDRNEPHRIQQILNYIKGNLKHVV
Kind of experiment: In vitro HDAC assay for determination of IC50 values (BIOMOL fluorescent-based HDAC activity assay), HDAC8. It is filed as biochemical. To be noted: 500 nM HDAC8 enzyme, 200 μM Flur de lys p53 peptide substrate, room temperature 2 h; read-out: HDAC8 Enzyme Activity, IC50. On the procedure:
as §1
Human cDNA library was prepared using cultured SW620 cells. Amplification of human HDAC1 and HDAC8 coding region from this cDNA library was cloned separately into the baculovirus expression pDEST20 vector and pFASTBAC vector respectively (GATEWAY Cloning Technology, Invitrogen Pte Ltd). […] Recombinant baculovirus was prepared using the Bac-To-Bac method following the manufacturer's instruction (Invitrogen Pte Ltd).
as §2, §3
The assay has been carried out in 96 well format and the BIOMOL fluorescent-based HDAC activity assay has been applied. […] Flur de lys Developer was added and the reaction was incubated for 10 min. Briefly, deacetylation of the substrate sensitizes it to the developer, which then generates a fluorophore The fluorophore is excited with 360 nm light and the emitted light (460 nm) is detected on a fluorometric plate reader (Tecan Ultra Microplate detection system, Tecan Group Ltd.).
as §4

For experiment [2], the system named is acetylated H3 in Colo205 cells. Description: Histone H3 acetylation assay (western-blot). It is filed as cell-based, human. Conditions: Colo205 cells, 0.1, 1, 5 and 10 μM, after 24 h. On the set-up: key: “Active” means accumulation of acetylated histone was observed when compared with control (without compound). The method, then: (§5) Histone H3, H4 and H2A acetylation assay
A hallmark of histone deacetylase (HDAC) inhibition is the increase in the acetylation level of histones. Histone acetylation, including H3, H4 and H2A can be detected by immuno-blotting (western-blot). Colo205 cells, approximately 1.5×10^6 cells/10 cm dish, were seeded in the previously described medium, cultivated for 24 h and subsequently treated with HDAC inhibitory agents at 0.1, 1, 5 and 10 μM final concentration. […] The protein concentration was quantified using BCA method (Sigma Pte Ltd). The protein lysate was separated using 4-12% bis-tris SDS-PAGE gel (Invitrogen Pte Ltd) and was transferred onto PVDF membrane (BioRad Pte Ltd). The membrane was probed separately using primary antibody specific for acetylated H3, acetylated H4 or acetylated H2A (Upstate Pte Ltd). The detection antibody, goat anti rabbit antibody conjugated with horse radish peroxidase (HRP) was used according to the manufacturing instruction (Pierce Pte Ltd). After removing the detection antibody from the membrane, an enhanced chemiluminescent substrate for detection of HRP (Pierce Pte Ltd) was added onto the membrane. After removing the substrate, the membrane was exposed to an X-ray film (Kodak) for 1 sec-20 mins. The X-ray film was developed using the X-ray film processor. The density of each band observed on the developed film could be analysed using UVP Bioimaging software (UVP, Inc, Upland, Calif.). The values were then normalized against the density of actin in the corresponding samples to obtain the expression of the protein.

In experiment [3] the test system is acetylated H4 in Colo205 cells. Description: Histone H4 acetylation assay (western-blot). Also noted: key: “Active” means accumulation of acetylated histone was observed when compared with control (without compound). It counts as cell-based, human. To be noted: Colo205 cells, 0.1, 1, 5 and 10 μM, after 24 h. On the procedure:
as §5
A hallmark of histone deacetylase (HDAC) inhibition is the increase in the acetylation level of histones. Histone acetylation, including H3, H4 and H2A can be detected by immuno-blotting (western-blot). Colo205 cells, approximately 1.5×10^6 cells/10 cm dish, were seeded in the previously described medium, cultivated for 24 h and subsequently treated with HDAC inhibitory agents at 0.1, 1, 5 and 10 μM final concentration. After 24 h, cells were harvested and lysed according to the instruction from Sigma Mammalian Cell Lysis Kit. The protein concentration was quantified using BCA method (Sigma Pte Ltd). The protein lysate was separated using 4-12% bis-tris SDS-PAGE gel (Invitrogen Pte Ltd) and was transferred onto PVDF membrane (BioRad Pte Ltd). The membrane was probed separately using primary antibody specific for acetylated H3, acetylated H4 or acetylated H2A (Upstate Pte Ltd). The detection antibody, goat anti rabbit antibody conjugated with horse radish peroxidase (HRP) was used according to the manufacturing instruction (Pierce Pte Ltd). After removing the detection antibody from the membrane, an enhanced chemiluminescent substrate for detection of HRP (Pierce Pte Ltd) was added onto the membrane. After removing the substrate, the membrane was exposed to an X-ray film (Kodak) for 1 sec-20 mins. The X-ray film was developed using the X-ray film processor. The density of each band observed on the developed film could be analysed using UVP Bioimaging software (UVP, Inc, Upland, Calif.). The values were then normalized against the density of actin in the corresponding samples to obtain the expression of the protein.

For `O=C(Cc1ccccc1)NCc1cccc(-c2ccc(C(=O)NO)cc2)c1` [3′-(Phenylacetylamino-methyl)-biphenyl-4-carboxylic acid hydroxyamide, reference compound], the “% cells in late apoptosis (Ramos)” value in experiment [1] amounted to 89%.
Turning to `Cc1nc(C2CCCNC2)sc1C(=O)Nc1nc(-c2ccc(CC(=O)NO)s2)cs1` (stereo not drawn) [Example 6], the 50% inhibitory concentration (IC50) against HDAC1 enzyme (GST-HDAC1) was found to be 2780 nM; at HDAC8 enzyme (GST-HDAC8) it was 40 nM.
Turning to `O=C(Cc1ccc(-c2csc(NC(=O)c3ccc(N4CCNCC4)cc3)n2)s1)NO` [Example 8], the IC50 was found to be 2760 nM on HDAC1 enzyme (GST-HDAC1) and 89 nM at HDAC8 enzyme (GST-HDAC8). For the same compound, the “% cells in late apoptosis (Ramos)” value in experiment [1] is on record as 74%.
`O=C(Cc1ccc(-c2csc(NC(=O)c3ccn(CC4CCNCC4)c3-c3ccccc3)n2)s1)NO` [Example 10]: the concentration for half-maximal inhibition (IC50) on HDAC1 enzyme (GST-HDAC1) is > 100000 nM; at HDAC8 enzyme (GST-HDAC8) it was 140 nM.
`O=C(NO)c1ccc(-c2csc(NS(=O)(=O)c3ccccc3)n2)s1` [Example 15, 5-(2-Benzenesulfonylamino-thiazol-4-yl)-thiophene-2-carboxylic acid hydroxyamide]: the concentration for half-maximal inhibition (IC50) against HDAC1 enzyme (GST-HDAC1) amounted to 1130 nM; at HDAC8 enzyme (GST-HDAC8) it was 290 nM.
Consider `O=C(COc1ccccc1)Nc1nc(-c2ccc(C(=O)NO)s2)cs1` [Example 16, 5-[2-(2-Phenoxy-acetamino)-thiazol-4-yl]-thiophene-2-carboxylic acid hydroxyamide], for which the results for the IC50 on HDAC1 enzyme (GST-HDAC1) and on HDAC8 enzyme (GST-HDAC8) were 700 nM and 38 nM, respectively. The “% cells in late apoptosis (Ramos)” value in experiment [1] amounted to 90%.
For the compound `O=C(Cc1ccccc1)Nc1nc(-c2cc(C(=O)NO)no2)cs1` [Example 17, 5-(2-Phenylacetylamino-thiazol-4-yl)-isoxazole-3-carboxylic acid hydroxyamide], the IC50 against HDAC1 enzyme (GST-HDAC1) was 1400 nM; at HDAC8 enzyme (GST-HDAC8), 340 nM.
`O=C(Nc1cccc(-c2cc(C(=O)NO)n[nH]2)c1)c1ccccc1` [Example 18, 5-(3-Benzoylamino-ihenyl)-1H-pyrazole-3-carboxylic acid hydroxyamide]: the results for the IC50 against HDAC1 enzyme (GST-HDAC1) and on HDAC8 enzyme (GST-HDAC8) were > 100000 nM and 350 nM, respectively.
The corresponding values for `O=C(NO)c1ccc(-c2ccc(CNCCc3c[nH]c4ccccc34)cc2)s1` [Example 28] are 15 nM and 14 nM.
The corresponding values for `O=C(NO)c1ccc(-c2cccc(CNCCc3ccccc3)c2)s1` [Example 29] are 87 nM and 26 nM.
Turning to `O=C(NO)c1ccc(-c2cccc(CNCCc3ccccn3)c2)s1` [Example 30], the values for the 50% inhibitory concentration (IC50) on HDAC1 enzyme (GST-HDAC1) and at HDAC8 enzyme (GST-HDAC8) were 220 nM and 50 nM, respectively. In experiment [2], the “Histone 3 acetylation” value was “Active”. Besides, the “Histone 4 acetylation” value in experiment [3] is listed as “Active”.
In the case of `O=C(NO)c1ccc(-c2cccc(CNCCc3c[nH]c4ccccc34)c2)s1` [Example 31], the IC50 against HDAC1 enzyme (GST-HDAC1) is 17 nM; at HDAC8 enzyme (GST-HDAC8) it was 8 nM.
Take `O=C(NO)c1ccc(-c2ccc(NCc3ccccc3)cc2)s1` [Example 44]: the concentration for half-maximal inhibition (IC50) on HDAC1 enzyme (GST-HDAC1) came to 1420 nM; at HDAC8 enzyme (GST-HDAC8), 110 nM. For the same compound, the “% cells in late apoptosis (Ramos)” value in experiment [1] was 82%.

Usually IC50 stands for the concentration needed to halve the response being measured.
